Results taken from patent US9938316B2, “Selective inhibitors of α2 isoform of Na,K-ATPase and use thereof for reduction of intra-ocular pressure and as cardiotonic agents” (priority 2013, dated 2018).

Columns and labels:
Assay in all cases: biochemical
[1] = system: Na,K-ATPase α2β2 isoform complex; parameters: species or system human; settings: ratio of Ki, Table 6
Source text: (§1) Human β1, β2 and β3 were cloned into the pHIL-D2 expression vector containing the human α1 or α2. pHIL-D2 expression vectors containing porcine (p) α1, human (h) α1 or human α2 with Hisx10 tagged porcine β1 were previously generated (7, 9). Human β1 (Accession: P05026), human β2 (Accession: P14415) and human β3 (Accession: […]) cDNAs in pSD5 vector were a gift from K. Geering Univ. Lausanne Switzerland. The open reading frames and flanking regions of hβ1, hβ2 and hβ3 (in pSD5) were amplified separately by polymerase chain reaction (PCR) using synthetic primers containing BglII and SalI cleavage sites. Each one of the amplified fragments were digested with BglII and SalI and ligated to BglII and SalI treated plasmid pHIL-D2-(pα1/His10pβ1) to generate pHIL-D2 (pα1/His10hβ1or2or3). hβ1, hβ2 and hβ3 containing fragments were excised from pHIL-D2-(pα1/His10hβ1or2or3) and subcloned into pHIL-D2-(hα1/His10pβ1) or pHIL-D2-(hα2/His10pβ1) to produce pHIL-D2-(hα1/His10hβ1or2or3) and pHIL-D2-(hα2/His10hβ1or2or3). The newly created plasmids were analyzed for correct integration and correct sequence of the insert by restriction enzymatic digestions and sequencing. DNA of each construct was prepared in large quantities in E. coli XL-1 Blue for Pichia pastoris transformation.
(§2) Inhibition of Na,K-ATPase activity of the detergent-soluble α1β1, α2β1, and α3β1 complexes by CG's was determined as described (6) using either the αβ or αβFXYD1 complexes. […] The K0.5K was estimated by varying K concentration in a medium containing a fixed total K+choline chloride of 60 mM, and constant NaCl of 140 mM. Curves were fitted to the Hill function v=Vmax*[S]^n/([S]^n+K^n), where S is the K concentration, n is the Hill coefficient and K^n is K0.5K. For comparison of different curves the ratio v/Vmax for each curve was calculated and replotted. In experiments to assess inhibition of Na,K-ATPase activity by cardiac glycosides of the present invention, the percent inhibition VCG/V0 was calculated and Ki values were obtained by fitting the data to the function VCG/V0=Ki/([CG]+Ki)+ c. Inhibition was estimated in 3-8 separate experiments and average Ki values ±SEM were calculated. Significance of differences between Kiα1 and Kiα2 was calculated by the unpaired Student's t-test (p values). […] P values <0.05 were considered significant.

[2] = molecular target: T1, Na,K-ATPase α2β2 isoform complex (Homo sapiens, UniProt P50993)
T1 construct: made in house; host or cells: Pichia pastoris SMD1165
Source text: as §1, §2

[3] = system: Na,K-ATPase α2β3 isoform complex; parameters: species or system human; settings: ratio of Ki, Table 6
Source text: as §1, §2

[4] = molecular target: T2, Na,K-ATPase α2β3 isoform complex (Homo sapiens, UniProt P50993)
T2 construct: made in house; host or cells: Pichia pastoris SMD1165
Source text: as §1, §2

[5] = molecular target: Na,K-ATPase α1β1 isoform complex (Homo sapiens, UniProt P05023); parameters: made in house; host or cells: Pichia pastoris SMD1165; settings: Ki, nM ± SEM α1β1, Table 6
Description: Methods for transformation, culture of P. pastoris clones, protein expression of Na,K-ATPase human isoforms (α1β1, α2β1, α3β1), membrane preparation, solubilization of membranes in DDM, and purification on BD-Talon beads have been described in detail (6-9, 11, 25). In initial experiments the three purified isoform complexes (0.3-0.5 mg/ml) were eluted from the BD-Talon beads in a solution containing Imidazole 170 mM, NaCl 100 mM; Tricine.HCl 20 mM pH 7.4; C12E8, 0.1 mg/ml; SOPS 0.07 mg/ml cholesterol 0.01 mg/ml, glycerol 25%. In later experiments the isoforms complexes were reconstituted with purified FXYD1 on the BD-Talon beads together as described in detail in (10, 11) prior to elution of α1β1FXYD1, α2β1FXYD1 and α3β1FXYD1 complexes. The proteins were stored at −80° C. Protein concentration was determined with BCA (B9643 Sigma).
as §2

CC1CN(C)CCC(OC2C(O)CC(OC3C(O)CC(OC4CCC5(C)C(CCC6C5CC(O)C5(C)C(C7=CC(=O)OC7)CCC65O)C4)OC3C)OC2C)O1 (centres unmarked) [DMe]
Selectivity α1β1/α2/β2 [1]: 5.07
Ki [2]: 20.4 ± 1.8 nM
Selectivity α1β1/α2β3 [3]: 9.5
Ki [4]: 10.8 ± 0.6 nM
Ki [5]: 103 ± 5.6 nM
